Patent publication EP1268487B1, “TRICYCLIC PROTEIN KINASE INHIBITORS” (Wyeth, priority 2000, dated 2001)

Key:
Raf-1 (c-Raf) = target: T1, Raf-1 (c-Raf) (Homo sapiens, UniProt P04049); assay: Raf-1 kinase cascade assay; assay type: biochemical
T1 construct: Sf9 insect cell lysate containing full length 6his-tagged recombinant human c-Raf; 6his; host or cells: c-Raf: Sf9 insect cell lysate; MEK1 and MAPK: E. coli
Description: (Specific Activity: ∼200U/ml). Human Non-active Mek-1-GST and human GST-MAP kinase (recombinant proteins produced in E. coli ). • Stock Solutions c-Raf Assay: • 1. Assay Dilution Buffer (ADB): 20mM MOPS, pH 7.2, 25mM β-glycerol phosphate, 5mM EGTA, 1mM sodium orthovanadate, 1mM dithiothreitol. • 2. Magnesium/ATP Cocktail: 500µM cold ATP and 75 mM magnesium chloride in ADB. • 4. Active Kinase: Human Active c-Raf: Use at 0.4U per assay point. • 5. Non-active GST-MEK1: Use at 0.1µg per assay point. • 6. Non-active GST-p42 MAP Kinase: Use at 1.0 µg per assay point. • Stock Solutions ELISA: • 1. TBST - Tris (50 mM, pH 7.5), NaCl ( 150 mM), Tween-20 (0.05 %) • 2. Superblock (Pierce) • 3. Anti-GST Ab (Pharmacia) • 4. Anti-Phospho MAPK (Sigma) • 5. Anti-Mouse Ab / Europium conjugate (Wallac) • Assay Procedure: • First Stage: c-Raf Dependent Activation of GST-MEK and GST-MAPK • 1. Add […] of ADB per assay (i.e. per well of a 96 well plate) • 2. Add 10 ml of 0.5 mM cold ATP and 75 mM magnesium chloride in ADB. • 3. Add 2 ml of c-Raf (0.4U/assay), in conjunction with 1.6ml non-active MEK1 ([…]). • 4. Add 4 ml of non-active GST-p42 MAP Kinase ([…]). • 5. Incubate for 60 minutes at 30°C in a shaking incubator. • 6. Transfer this mixture to an anti-GST Ab coated 96 well plate (Nunc Immunosorb plates coated o/n with a-GST, then blocked with Pierce Superblock). • 7. Incubate for 60 minutes at 30°C in a shaking incubator • 8. Wash 3X with TBST, add Anti-Phospho MAPK (Sigma) (1:3000) • 9. Incubate for 60 minutes at 30°C in a shaking incubator • 10. Wash 3X with TBST, add Anti-Mouse Ab / Europium conjugate (Wallac) (1:500) • 11. Incubate for 60 minutes at 30°C in a shaking incubator • 12. Wash 3X with TBST, Read plates in Wallac Victor model Plate Reader. • 13. Collect data analyze in Excel for single point and IC50 determinations.
Typically Raf-1 assay is run at compound concentrations from 10 µM to 30 nM in half log dilutions. (% inhibition is determined for each compound concentration).

[1] = target: T2, Epidermal Growth Factor Receptor Kinase (EGF-R) (Homo sapiens, UniProt P00533); assay: Inhibition of Epidermal Growth Factor Receptor Kinase (EGF-R) using recombinant enzyme; assay type: biochemical
T2 construct: containing the EGFR cDNA encoding amino acids 645 - 1186 preceded by Met-Ala-(His)6; Met-Ala-(His)6 (N); made in house; host or cells: Sf9 insect cells (baculovirus vHcEGFR52)
T2 sequence (P00533 669-1210): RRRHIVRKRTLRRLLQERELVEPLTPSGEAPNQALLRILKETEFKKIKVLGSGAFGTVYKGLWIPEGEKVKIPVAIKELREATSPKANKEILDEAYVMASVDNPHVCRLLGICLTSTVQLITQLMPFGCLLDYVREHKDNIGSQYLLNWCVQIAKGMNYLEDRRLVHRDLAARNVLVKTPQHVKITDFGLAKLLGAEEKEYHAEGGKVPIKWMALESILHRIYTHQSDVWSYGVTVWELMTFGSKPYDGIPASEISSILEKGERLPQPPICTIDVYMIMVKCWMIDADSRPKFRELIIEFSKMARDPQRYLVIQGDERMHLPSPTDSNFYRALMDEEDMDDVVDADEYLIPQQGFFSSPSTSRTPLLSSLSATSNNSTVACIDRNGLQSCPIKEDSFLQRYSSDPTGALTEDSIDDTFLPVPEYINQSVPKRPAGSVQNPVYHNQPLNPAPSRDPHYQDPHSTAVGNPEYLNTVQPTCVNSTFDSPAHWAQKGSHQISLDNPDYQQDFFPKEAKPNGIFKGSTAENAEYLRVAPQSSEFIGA
Description: Representative test compounds were evaluated for their ability to inhibit the phosphorylation of the tyrosine residue of a peptide substrate catalyzed by the enzyme epidermal growth factor receptor kinase. The peptide substrate (RR-SRC) has the sequence arg-arg-leu-ile-glu-asp-ala-glu-tyr-ala-ala-arg-gly. The enzyme used in this assay is the His-tagged cytoplasmic domain of EGFR. A recombinant baculovirus (vHcEGFR52) was constructed containing the EGFR cDNA encoding amino acids 645 - 1186 preceded by Met-Ala-(His)6. Sf9 cells in 100 mm plates were infected at an moi of 10 pfu/cell and cells were harvested 48 hours post infection. A cytoplasmic extract was prepared using 1% Triton X-100 and applied to Ni-NTA column. After washing the column with 20 mM imidazole, HcEGFR was eluted with 250 mM imidazole (in 50 mM Na2HPO4, pH 8.0, 300 mM NaCl). Fractions collected were dialyzed against 10 mM HEPES, pH 7.0, 50 mM NaCl, 10% glycerol, 1µg/mL antipain and leupeptin and 0.1 mM Pefabloc SC. The protein was frozen in dry ice/methanol and stored -70° C.
Test compounds were made into 10 mg/mL stock solutions in 100% dimethylsulfoxide (DMSO). Prior to experiment, stock solutions were diluted to 500 µM with 100% DMSO and then serially diluted to the desired concentration with HEPES buffer (30 mM HEPES pH 7.4).
For the enzyme reaction, 10 µL of each inhibitor (at various concentrations) were added to each well of a 96-well plate. To this was added 3 µL of enzyme (1:10 dilution in 10mM HEPES, pH 7.4 for final conc. of 1:120). This was allowed to sit for 10 minutes on ice and was followed by the addition of 5 µl peptide (80 uM final conc.), 10µl of 4X Buffer (Table A), 0.25 µL ^33P-ATP and 12 µL H2O. The reaction was allowed to run for 90 minutes at room temperature and was followed by spotting the entire volume on to precut P81 filter papers. The filter discs were washed 2X with 0.5% phosphoric acid and radioactivity was measured using a liquid scintillation counter. Table A
The inhibition data for representative compounds of the invention are shown below in TABLE 1. The IC50 is the concentration of test compound needed to reduce the total amount of phosphorylated substrate by 50%. The % inhibition of the test compound was determined for at least three different concentrations and the IC50 value was evaluated from the dose response curve. […] CPM(control) is in units of counts per minute and was a number expressing the amount of radiolabeled ATP (γ-^33P) incorporated into the RR-SRC peptide substrate by the enzyme after 90 minutes at room temperature in the absence of test compound as measured by liquid scintillation counting. The CPM values were corrected for the background counts produced by ATP in the absence of the enzymatic reaction. Where it was possible to determine an IC50 value, this is reported in TABLE 1 otherwise the % inhibition at 0.5 µM concentration of test compound is shown in TABLE 1.

T1 sequence (P04049 whole entry): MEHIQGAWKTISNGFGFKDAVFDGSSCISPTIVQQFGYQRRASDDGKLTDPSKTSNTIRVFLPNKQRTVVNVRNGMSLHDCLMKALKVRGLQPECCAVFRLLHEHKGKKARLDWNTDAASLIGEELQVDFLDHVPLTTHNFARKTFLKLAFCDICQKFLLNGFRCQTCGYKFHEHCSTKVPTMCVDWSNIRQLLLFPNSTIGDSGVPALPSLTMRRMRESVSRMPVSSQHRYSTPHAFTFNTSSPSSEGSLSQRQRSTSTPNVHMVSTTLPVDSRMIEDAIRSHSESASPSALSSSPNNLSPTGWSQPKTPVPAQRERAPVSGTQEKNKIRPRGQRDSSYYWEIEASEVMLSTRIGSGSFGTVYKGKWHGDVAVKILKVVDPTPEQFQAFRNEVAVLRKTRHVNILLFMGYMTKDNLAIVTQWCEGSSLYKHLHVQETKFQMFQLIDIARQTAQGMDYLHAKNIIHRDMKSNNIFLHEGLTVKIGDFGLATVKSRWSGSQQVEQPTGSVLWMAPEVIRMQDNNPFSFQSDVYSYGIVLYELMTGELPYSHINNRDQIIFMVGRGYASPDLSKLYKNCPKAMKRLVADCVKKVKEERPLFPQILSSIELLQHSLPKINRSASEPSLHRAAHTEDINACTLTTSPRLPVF

SMILES: N#Cc1cnc2cc3c(cc2c1Nc1ccc(F)c(Cl)c1)NCCO3 [Example 7, 9-(3-Chloro-4-fluoroanilino)-2,3-dihydro-1H-[1,4]oxazino[3,2-g]quinoline-8-carbonitrile]
- inhibition at 0.03 µg/mL (Raf-1 (c-Raf); dose 0.03 µg/mL): -5%
- inhibition at 0.1 µg/mL (Raf-1 (c-Raf); dose 0.1 µg/mL): 2%
- inhibition at 0.3 µg/mL (Raf-1 (c-Raf); dose 0.3 µg/mL): 8%
- inhibition at 1 µg/mL (Raf-1 (c-Raf); dose 1.0 µg/mL): 16%
- inhibition at 3 µg/mL (Raf-1 (c-Raf); dose 3.0 µg/mL): 68%
- inhibition at 10 µg/mL (Raf-1 (c-Raf); dose 10.0 µg/mL): 90%
- inhibition at 0.5 µM ([1]; 0.5 µM concentration of test compound): 35.5%
- IC50 ([1]; recombinant enzyme): 1 µM
